Consider two compounds from US6458950B1, “Compounds and pharmaceutical compositions containing the same” (Shionogi & Co., Ltd., priority 1997, dated 2002).

A word on the ED50: it is the midpoint of the dose-response relation. One may read the half-life as how long it takes for the measured level to halve. In general, MIC refers to the lowest concentration that inhibits growth of the organism.

One data set deals with S.aureus Smith. Briefly: Treating effect on infections in mouse. Format: in vivo. To be noted: Staphylococcus aureus, S.aureus Smith infection.
The nature of data set [1]: in vivo. As to conditions: mouse.
Another data set concerns S.pneumoniae Type I. Briefly: Treating effect on infections in mouse. Format: in vivo. As to conditions: Streptococcus pneumoniae, S.pneumoniae Type I infection.
The nature of data set [2]: in vivo. As to conditions: monkey.
Another data set relates to S. agalactiae ATCC13813. Briefly: MIC by agar dilution method. Format: cell-based. As to conditions: Streptococcus agalactiae, inoculation amount 10^6 CFU/ml. As to the method: (§1) The minimal inhibitory concentration (MIC) was determined by an agar dilution method. That is, 1.0 ml each of an aqueous solution of a test compound diluted in series was poured into a petri dish. Trypticase soy agar (9 ml) was poured into the solution, and mixed. A suspension (about 10^6 CFU/ml) of test bacteria was smeared on the mixed agar plate.
(§2) Gram-positive bacteria; S. pyogenes C-203, S. agalactiae ATCC13813, S. pneumoniae Type I, S. pneumoniae SR16675(PC-R), S. mitis ATCC9811 Gram-negative bacteria: K. pneumoniae SR1, P. mirabilis PR-4 and P. vulgaris CN-329
On the technique in general: Agar dilution tests growth on a series of plates holding different concentrations.

A further data set deals with S. pyogenes C-203. Briefly: MIC by agar dilution method. Format: cell-based. To be noted: Streptococcus pyogenes, C203, inoculation amount 10^6 CFU/ml. As to the method: as §1, §2
The test system of the next data set is K. pneumoniae SR1. Briefly: MIC by agar dilution method. The data set is classed as cell-based. To be noted: Klebsiella pneumoniae, K.pneumoniae R1, inoculation amount 10^6 CFU/ml. As to the method: as §1, §2
A further data set deals with S. pneumoniae Type I. Briefly: MIC by agar dilution method. To be noted: Streptococcus pneumoniae, inoculation amount 10^6 CFU/ml. Format: cell-based. As to the method: as §1, §2
The test system of data set [3] is S. pneumoniae SR16675(PC-R). Briefly: MIC by agar dilution method. The data set is classed as cell-based. To be noted: Streptococcus pneumoniae, inoculation amount 10^6 CFU/ml. As to the method:
as §1, §2

In the next data set the test system is S. mitis ATCC9811. Briefly: MIC by agar dilution method. The data set is classed as cell-based. To be noted: Streptococcus mitis, inoculation amount 10^6 CFU/ml. As to the method:
as §1, §2

The test system of the next data set is P. vulgaris CN-329. Briefly: MIC by agar dilution method. The data set is classed as cell-based. To be noted: Proteus vulgaris, CN329, inoculation amount 10^6 CFU/ml. As to the method: as §1, §2
Another data set deals with P. mirabilis PR-4. Briefly: MIC by agar dilution method. Format: cell-based. As to conditions: Proteus mirabilis, PR4, inoculation amount 10^6 CFU/ml. As to the method:
as §1, §2

For another data set, the system named is P.aeruginosa SR24. Briefly: Treating effect on infections in mouse. To be noted: Pseudomonas aeruginosa, P.aeruginosa SR24 infection. The data set is classed as in vivo.
A further data set has as its system P.aeruginosa E-2. Briefly: Treating effect on infections in mouse. Format: in vivo. To be noted: Pseudomonas aeruginosa, E2, P.aeruginosa E-2 infection.
A further data set concerns P.vulgaris GN-329. Briefly: Treating effect on infections in mouse. Format: in vivo. To be noted: Proteus vulgaris, GN329, P.vulgaris GN-329 infection.

Each structure is given as a SMILES string. Values after ≈ are worked out from the molar mass of the structure shown.

For the compound `CO/N=C(\C(=O)NC1C(=O)N2C(C(=O)[O-])=C(Cn3cc[n+]4ncccc34)CSC12)c1nsc(N)n1` (centres unmarked) [Control compound (1)], the ED50 is 0.76 mg/kg in the data set on S.aureus Smith; 0.69 mg/kg in the data set on S.pneumoniae Type I; 1.52 mg/kg in the data set with P.aeruginosa SR24; 4.73 mg/kg with P.aeruginosa E-2; 0.81 mg/kg in the data set on P.vulgaris GN-329. The figures for the half-life in “in vivo [1]” and in “in vivo [2]” were 23.4 min and 76.8 min, respectively. The MIC is 0.1 µg/mL (≈ 0.194 µM) against S. agalactiae ATCC13813; 0.013 µg/mL (≈ 0.0252 µM) in the data set with S. pyogenes C-203; 0.05 µg/mL (≈ 0.097 µM) against K. pneumoniae SR1; 0.05 µg/mL (≈ 0.097 µM) against S. pneumoniae Type I; 0.78 µg/mL (≈ 1.51 µM) in data set [3]; 0.1 µg/mL (≈ 0.194 µM) against S. mitis ATCC9811. Besides, the MIC with P. vulgaris CN-329 and in the data set on P. mirabilis PR-4 was 0.1 µg/mL (≈ 0.194 µM) throughout.
Take `N#CNC(=O)NCc1cc(-c2cc[n+](CC3=C(C(=O)[O-])N4C(=O)C(NC(=O)/C(=N\OCF)c5nsc(N)n5)C4SC3)cc2)c[nH]1` (centres unmarked) [I-1′]: the MIC in the data set with S. agalactiae ATCC13813 worked out at 0.025 µg/mL (≈ 0.0381 µM); against S. pyogenes C-203 it was 0.006 µg/mL (≈ 0.00915 µM); in the data set on K. pneumoniae SR1, 0.006 µg/mL (≈ 0.00915 µM); with S. pneumoniae Type I, 0.013 µg/mL (≈ 0.0198 µM); in data set [3], 0.2 µg/mL (≈ 0.305 µM); against S. mitis ATCC9811, 0.05 µg/mL (≈ 0.0763 µM). The MIC in the data set with P. vulgaris CN-329 and in the data set with P. mirabilis PR-4 was 0.013 µg/mL (≈ 0.0198 µM) in each case.
